Laboratory results from patent publication US20200138921A1, “METHODS OF PREVENTING AND TREATING DISEASES CHARACTERIZED BY SYNAPTIC DYSFUNCTION AND NEURODEGENERATION INCLUDING ALZHEIMER'S DISEASE” (The Trustees of Columbia University in the City of New York, priority 2017, published 2020).

What was measured:
Ube3A [1] = test: Western blot of Ube3A protein in cultured primary hippocampal neurons; type: cell-based, rat
Experimental: (§1) Hippocampal neuron cultures from both male and female rat embryos (E17-18) were prepared following a slightly modified version of the method of Brewer et al. 1996. Hippocampal neurons were kept in culture at 37° C. with 5% CO2 in Neurobasal medium (ThermoFisher) with B27 (ThermoFisher) supplement and Glutamax (ThermoFisher) and plated at a density of 2.5×10^5 cell/ml on dishes coated with poly-D-lysine (ThermoFisher). For the experiments, neurons were used after 14-21 days in vitro (DIV). Rat neuroblastoma B35 cells were cultured and maintained in DMEM (ThermoFisher) supplemented with 10% fetal bovine serum (FBS; Invitrogen) and Glutamax (ThermoFisher).
(§2) Whole frozen mouse hippocampi, human brain specimens, and cultured cells were homogenized in RIPA buffer (ThermoFisher) supplemented with protease and phosphatase inhibitor cocktail (ThermoFisher), using a Teflon dounce homogenizer and centrifuged at 14,000 rpm for 10 minutes at 4° C. Supernatants were collected, normalized by BCA assay (ThermoFisher), and prepared for loading using sample buffer (SB) 4× (ThermoFisher) and dithiothreitol (DTT) 10× (ThermoFisher).
(§3) Cultured primary hippocampal neurons (14 DIV) were treated with 300 nM of a topoisomerase type I inhibitor, topotecan (TOP) or a vehicle control as described in Huang et al. 2012. Some cells were treated for 24 hours and some for 72 hours. All cells were harvested and whole cell lysates prepared for Western blot analysis of Ube3A and Ephixin-5.

p53 = test: Western blot of p53 in hippocampal neurons; type: cell-based, rat; conditions: Aβ for 8-10 hours
Experimental: as §2
As observed in the Tg2576 mice hippocampi, the levels of Ube3A inversely correlated with the levels of Arc and Ephexin-5. To determine whether this correlation was also observed in hippocampal neurons, the cells were treated with Aβ for 8-10 hours, and whole cell lysates were collected for Western blot analysis.

RhoA-GTP = test: Rho-GTPase activity pull-down assay in hippocampal neurons; type: cell-based, rat
Experimental: Rho-GTPase pull-down assays were performed following the manufacturer's protocol (Cytoskeleton, Inc.). Briefly, cells were washed once with ice-cold PBS and lysed with RIPA/M-PER buffer (1:1; ThermoFisher). Lysates were incubated on ice for 5 minutes, and centrifuged (12,000 g) for 5 minutes. 30 μl was used for input and the remaining lysates were incubated with Rhotekin-RBD (RhoA) or PAK-RBD (Rac1) protein beads (25 μl) by rotating for 1 hour at 4° C. Beads were washed with ice-cold PBS (500 μl, 3×) and collected, and bound proteins were eluted with 1× sample buffer (30 μl). Input and eluted samples were then analyzed by gel electrophoresis and Western blotting using either a RhoA or Rac1-specific antibody.
To test whether increasing Ube3A could rescue the effects of oAβ, cultured primary hippocampal neurons (14 DIV) were pretreated with 300 nM of TOP or control PBS. At day 3 the cells were treated with oligomeric Aβ for 6 hours and whole cell lysates prepared for Western blot analysis of Ube3A protein levels and levels of active GTPase levels including RhoA-GTP, Rac1-GTP and Cdc42-GTP.

[2] = system: primary hippocampal neurons; test: Dendritic spine density in cultured hippocampal neurons (DiOlistic labeling); type: cell-based, rat; conditions: oAβ for 24 hours
Experimental: The protocol for diolistic labeling of neurons was adapted from Gan et al. 2000 and Gan et al. 2009. Briefly, 100 mg of tungsten particles (1.1 μm diameter; Bio-Rad) were thoroughly precipitated with 5.0 mg of lipophilic dye (DiI; ThermoFisher) and dissolved in 100 μl of methylene chloride. Dye-coated particles were shot 2-3 times into the cells using the Helios gene gun system (Bio-Rad) and left in 0.1 M PBS overnight to allow dye diffusion along neuronal processes. Cells were post-fixed with 4% paraformaldehyde (Pierce) for 1 hour to preserve staining, then mounted onto glass slides using Gel Mount (Biomeda) and stored at 4° C. in the dark.
Labeled neurons were imaged using the Laser Scanning Microscope (LSM) 510 Meta confocal microscope (Zeiss), equipped with 40×1.3 NA and 100×1.4 NA oil-immersion objectives. The NIH Image software program ImageJ was used the quantify diolistic-labeled cultured neurons. An average of 12 compressed images (20 μm thick) consisting of pyramidal neurons were quantified for each treatment. Spines were counted with NeuronStudio software in a blinded manner and spine density was represented in number of spine per μm dendritic length. Statistical analysis was performed using the statistics package GraphPad Prism.
To further test whether increasing Ube3A could rescue the effects of oAβ, cultured primary hippocampal neurons (14 DIV) were pretreated with 300 nM of TOP or control PBS. The neurons were then treated with oAβ for 24 hours, and whole cell lysates prepared for Western blot analysis, or fixed for microscopy.

EphB2 = test: Western blot of surface expressed EphB2 in hippocampal neurons; type: cell-based, rat; conditions: oAβ treated
Experimental: Enriched primary rat hippocampal neurons, cultured for 21 days in vitro, were treated with synthetic soluble oligomeric Aβ1-42 (hereinafter “oAβ”) for 24 hours. No cell death was detected under these conditions (data not shown).
Since Ube3A is also expressed in astrocytes (Grier et al. 2015), it was determined whether Ube3A levels were also altered in these cells.

Ephexin-5 = test: Western blot of Ephexin-5 in cultured primary hippocampal neurons; type: cell-based, rat
Experimental: as §1, §2, §3

Ube3A [3] = test: Ube3A protein in hippocampus of wild-type mice after a single TOP injection; type: in vivo; conditions: single bilateral hippocampal injection of TOP 275 μg
Experimental: as §2
Controls were wild type mice injected with PBS.

amyloid plaques = test: Amyloid plaque histology (6E10) in J20 mice; type: in vivo; conditions: TOP treated J20 mice at 12.5 months of age vs J20 mice treated with PBS
Text: Immunolabeling was done on 30 μm brain sections from the J20 TOP treated mice and PBS treated wild-type and J20 mice. Staining was done using the anti-Aβ antibody 6E10 (Covance) and GFAP (Cell Signaling). Plaque load and astrocytosis were quantified using ImageJ. Total plaque area was expressed as a percentage of the total hippocampal area.

[4] = neurons 21 DIV, oAβ for 24 hours
[5] = neurons pretreated with 300 nM TOP, oligomeric Aβ for 6 hours at day 3

Compound | levels of Ube3A protein (Ube3A [1]; [4]) | levels of p53 (p53) | levels of active RhoA-GTP (RhoA-GTP; [4]) | dendritic spine density ([2]; neurons 21 DIV) | levels of surface expressed EphB2 protein (EphB2) | levels of Ephexin-5 protein (Ephexin-5; hippocampal neurons, Aβ for 8-10 hours) | Ube3A protein levels (Ube3A [1]; neurons 14 DIV, 300 nM TOP, 24 or 72 hours, vs vehicle) | Ube3A protein levels (Ube3A [1]; [5]) | RhoA activity (RhoA-GTP; [5]) | protection against oAβ-induced loss of dendritic spine density ([2]; neurons pretreated with 300 nM TOP) | persistence of increased Ube3A expression after the single injection (Ube3A [3]) | Ube3A expression in the hippocampus (Ube3A [3]; after 1 month) | Ephexin-5 level (Ephexin-5; neurons 14 DIV, 300 nM TOP, vs vehicle) | accumulation of amyloid plaques (amyloid plaques)
oAβ: synthetic soluble oligomeric Aβ1-42 | significant decrease | did not show any altered levels | significant increase | significant decrease | decrease | significant increase |  |  |  |  |  |  |  | 
CC[C@@]1(O)C(=O)OCc2c1cc1n(c2=O)Cc2cc3c(CN(C)C)c(O)ccc3nc2-1 [TOP, topotecan] |  |  |  |  |  |  | increased as early as 24 hours and persisted up to three days | increased | decreased | complete protection | up to 5 months | sustained increase | significant decrease | approximately equal accumulation
